According to patent publication US20240336566A1, “CRYSTALLINE FORMS OF A COMPOUND FOR THE TARGETED DEGRADATION OF THE ANDROGEN RECEPTOR” (Arvinas Operations, Inc., priority 2023, published 2024):
Where two headings read alike, the source gives them in different places.

Assays:
[1] = Solvent solubility screen of Compound A (aliquot addition, HPLC of saturated solutions); type: physicochemical; design: key to XRPD: A: Amorphous; P1: Pattern 1; P2: Pattern 2; *Poorly crystalline; + p1: some pattern 1 peaks; details: for XRPD: solid from solubility screen; for solubility: thermodynamic from solid
Method: A known volume aliquot (typically 5 volumes) of solvent was added to approximately 5 mg of Compound A. See Table 14 for the selected solvents for the solvent solubility screen.
Between each addition, the mixture was checked for dissolution and where no dissolution was apparent, the mixture was heated to ca. 40° C. and checked again. This procedure was continued until dissolution was observed or until 100 volumes of solvent had been added.
Where dissolution was not observed, solids were isolated centrifugally and analyzed by XRPD. The saturated solutions were analyzed by HPLC to obtain the solubility.

[2] = Primary crystallization screen: XRPD before and after drying at 40° C.; type: physicochemical; design: key to XRPD Pattern Post-Thermal Cycling / XRPD Pattern Anti-Solvent Addition / XRPD Pattern Evaporation / XRPD Pattern Post-Thermal Cycling (dried): 1—Free base Pattern 1; 2—Free base Pattern 2; 3—Free base Pattern 3; 4—Free base Pattern 4; S—Potential Salt Pattern 1; A—Amorphous; C—Counterion present; *—Poorly crystalline; t—Results obtained from temperature cycling; e—Results obtained from evaporation
Method: • 34×40 mg of Compound A was weighed into vials before the selected solvents were added to prepare slurries, where possible. See Table 29 for a list of solvent systems used and the volume of solvent used. • Stirrer bars were added to the vials, before the vials were sealed and temperature cycled with stirring between 5° C. and 40° C. The heating rate was 0.1° C./min and the samples were held at 5° C. and 40° C. for 2 hours. • After temperature cycling for 4 days, observations were made (see Table 29). Slurries were centrifuge filtered and the solids were analyzed by XRPD • The solids were dried at 40° C. for approximately 18 h before being re-analyzed by XRPD. • Saturated solutions were then split into 3 vials for the following experiments • Evaporation at ambient temperature • Cooling (5° C.). • Where no solids were obtained after 72 hours, the samples were moved to the freezer at −20° C. for further cooling. • Where no solids were obtained from further cooling, the samples were allowed to evaporate at ambient temperature. • Anti-solvent addition at ambient temperature. • Where no solids were obtained after 72 hours the samples were moved to the freezer at −20° C. to encourage crystallization. • Where no solids were obtained from cooling, the samples were allowed to evaporate at ambient temperature.

[3] = Acetonitrile:Water (75:25% v/v)
[4] = Dichloromethane:Methanol (50:50% v/v)
[5] = Dichloromethane:Methanol (75:25% v/v)

In the case of COc1cc(O[C@H]2C(C)(C)[C@H](NC(=O)c3ccc(N4CCC(CN5CCN(c6ccc(C(=O)N[C@H]7CCC(=O)NC7=O)c(F)c6)CC5)CC4)cc3)C2(C)C)ccc1C#N [Compound A, 4-(4-((1-(4-(((1R,3R)-3-(4-cyano-3-methoxyphenoxy)-2,2,4,4-tetramethylcyclobutyl)carbamoyl)phenyl)piperidin-4-yl)methyl)piperazin-1-yl)-N—((S)-2,6-dioxopiperidin-3-yl)-2-fluorobenzamide], the XRPD ([1]; Ethanol) is reported as “P1”, the XRPD ([1]; Ethyl acetate) is reported as “P1” and the XRPD ([1]; Heptane) is reported as “A”. For the same molecule, the XRPD ([1]; Toluene) was “A”, the XRPD ([1]; Water) was “A” and the XRPD ([1]; tert-Butylmethyl ether) was “A”. It also gave a solubility ([1]; tert-Butylmethyl ether, organic solvent or mixture, tert-Butylmethyl ether, read-out: Approximate Solubility) of 0.108 mg/mL, a solubility ([1]; tetrahydrofuran, organic solvent or mixture, Tetrahydrofuran, read-out: Approximate Solubility) of 50 mg/mL and a solubility ([1]; tetrahydrofuran:water (98:2% v/v), organic solvent or mixture, Tetrahydrofuran:Water (98:2% v/v), read-out: Approximate Solubility) of 50 mg/mL. For the same molecule, the solubility ([1]; tetrahydrofuran:water (98:2% v/v), organic solvent or mixture, Tetrahydrofuran:Water (98:2% v/v), read-out: Approximate solubility) was roughly 50 mg/mL, the solubility ([1]; toluene, organic solvent or mixture, Toluene, read-out: Approximate Solubility) was 0.0298 mg/mL and the solubility ([1]; water, Water, read-out: Approximate Solubility) was 0.0005 mg/mL. The “XRPD Pattern Anti-Solvent Addition” value ([2]; 1,4-Dioxane) was “A”, the “XRPD Pattern Cooling” value ([2]; 1,4-Dioxane) was “A e” and the “XRPD Pattern Evaporation” value ([2]; 1,4-Dioxane) was “A x”. For the same molecule, the “XRPD Pattern Post-Thermal Cycling” value ([2]; 1,4-Dioxane) was “A”, the “XRPD Pattern Post-Thermal Cycling (dried)” value ([2]; 1,4-Dioxane) was “A *” and the “XRPD Pattern Evaporation” value ([2]; 1-Propanol) was “A”. For the same molecule, the “XRPD Pattern Evaporation” value ([2]; 2-Butanone (MEK)) was 1, the “XRPD Pattern Evaporation” value ([2]; Acetone:Water (90:10% v/v)) was 2 and the “XRPD Pattern Anti-Solvent Addition” value ([2]; Acetonitrile) was “A x”. For the same molecule, the “XRPD Pattern Evaporation” value ([2]; Acetonitrile) was “A +”, the “XRPD Pattern Post-Thermal Cycling” value ([2]; Acetonitrile) was 1 and the “XRPD Pattern Post-Thermal Cycling (dried)” value ([2]; Acetonitrile) was 1. The “XRPD Pattern Evaporation” value [2, 3] was 6 (6—Free base Pattern 6), the “XRPD Pattern Post-Thermal Cycling” value [2, 3] was 6 (6—Free base Pattern 6) and the “XRPD Pattern Post-Thermal Cycling (dried)” value [2, 3] was 6 (6—Free base Pattern 6). The “XRPD Pattern Post-Thermal Cycling” value ([2]; Anisole) was 5 (5—Free base Pattern 5), the “XRPD Pattern Post-Thermal Cycling (dried)” value ([2]; Anisole) was 8 (8—Free base Pattern 8) and the “XRPD Pattern Post-Thermal Cycling” value ([2]; Butyl acetate) was 1. The “XRPD Pattern Post-Thermal Cycling (dried)” value ([2]; Butyl acetate) was 1, the “XRPD Pattern Post-Thermal Cycling” value ([2]; Dichloromethane) was 6 (6—Free base Pattern 6) and the “XRPD Pattern Post-Thermal Cycling (dried)” value ([2]; Dichloromethane) was 6 (6—Free base Pattern 6). The “XRPD Pattern Post-Thermal Cycling” value [2, 4] was 2, the “XRPD Pattern Post-Thermal Cycling (dried)” value [2, 4] was 2 and the “XRPD Pattern Anti-Solvent Addition” value [2, 5] was “A”. For the same molecule, the “XRPD Pattern Cooling” value [2, 5] was “A e”, the “XRPD Pattern Evaporation” value ([2]; Diethyl ether) was “A x” and the “XRPD Pattern Evaporation” value ([2]; Ethanol) was “A x”. For the same molecule, the “XRPD Pattern Evaporation” value ([2]; Ethanol:Water (50:50% v/v)) was “A x”, the “XRPD Pattern Post-Thermal Cycling” value ([2]; Ethyl acetate) was 1 and the “XRPD Pattern Post-Thermal Cycling (dried)” value ([2]; Ethyl acetate) was 1. The “XRPD Pattern Evaporation” value ([2]; Isopropyl acetate) was “A x”, the “XRPD Pattern Cooling” value ([2]; Methanol) was “A e” and the “XRPD Pattern Evaporation” value ([2]; Methanol) was “A x”. The “XRPD Pattern Evaporation” value ([2]; Methylisobutyl ketone) was “A x”, the “XRPD Pattern Post-Thermal Cycling” value ([2]; Methylisobutyl ketone) was 1 and the “XRPD Pattern Post-Thermal Cycling (dried)” value ([2]; Methylisobutyl ketone) was 1. The “XRPD Pattern Anti-Solvent Addition” value ([2]; N,N′-Dimethylacetamide) was 1, the “XRPD Pattern Anti-Solvent Addition” value ([2]; N,N′-Dimethylformamide) was 1 and the “XRPD Pattern Cooling” value ([2]; N,N′-Dimethylformamide) was “A e”. For the same molecule, the “XRPD Pattern Evaporation” value ([2]; N,N′-Dimethylformamide) was 1, the “XRPD Pattern Post-Thermal Cycling” value ([2]; Tetrahydrofuran) was 1 and the “XRPD Pattern Post-Thermal Cycling (dried)” value ([2]; Tetrahydrofuran) was 1. For the same molecule, the “XRPD Pattern Anti-Solvent Addition” value ([2]; Tetrahydrofuran:Water (98:2% v/v)) was “A”, the “XRPD Pattern Post-Thermal Cycling” value ([2]; Toluene) was 7 (7—Free base Pattern 7) and the “XRPD Pattern Post-Thermal Cycling (dried)” value ([2]; Toluene) was 8 (8—Free base Pattern 8). For the same molecule, the “XRPD Pattern Post-Thermal Cycling” value ([2]; Water) was “A” and the “XRPD Pattern Post-Thermal Cycling (dried)” value ([2]; Water) was “A”.
